Measured values: patent US20060069132A1, “Azolecarboxamide herbicides” (priority 2004, published 2006)

Key:
pigweed = experiment: Test B pre-/postemergence herbicide test; type: in vivo, Amaranthus retroflexus
Method in brief: (§1)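 Visual rating, 0 (no effect) to 100 (complete control), versus untreated controls after 13–15 d in greenhouse. Pre- and postemergence applications (postemergence plants 2–18 cm, 1–4 leaves); flooded paddy arm at 2-leaf stage. Compounds in non-phytotoxic solvent plus surfactant.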

giant foxtail [1] = experiment: Test A pre-/postemergence herbicide test; type: in vivo, Setaria faberi
Method in brief: (§2)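 Sandy loam soil given preemergence directed spray; plants at 2 to 10 cm, one- to two-leaf stage, sprayed to runoff postemergence, compounds in non-phytotoxic solvent with surfactant. Injury rated visually versus untreated controls after about ten greenhouse days, 0 (no effect) to 100 (complete control); dash means not tested.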

barnyardgrass [2] = experiment: Test B flooded paddy test; type: in vivo, Echinochloa crus-galli; conditions: 1000 g ai/ha, visual rating, scale 0 to 100 (0 no effect, 100 complete control), 13 to 15 days
Method in brief: (§3)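 Paddy species grown to the 2-leaf stage under flooding; blackgrass sprayed postemergence at 2–18 cm (1- to 4-leaf stage). Plants kept in a greenhouse for 13 to 15 days, then visually rated against controls on 0 (no effect) to 100 (complete control).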

barnyardgrass [3] = experiment: Test B pre-/postemergence herbicide test; type: in vivo, Echinochloa crus-galli
Method in brief: (§4)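 Test chemicals in a non-phytotoxic solvent mixture with surfactant were applied preemergence to seeded species and postemergence to plants 2-18 cm tall (1- to 4-leaf stage); rice and barnyardgrass were also tested in a flooded paddy at the 2-leaf stage. Visual rating versus controls after 13-15 days in greenhouse, scale 0 (no effect) to 100 (complete control).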

wild oat = experiment: Test B postemergence herbicide test; type: in vivo, Avena fatua; conditions: scale 0 (no effect) to 100 (complete control)
Method in brief: (§5)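 Each value is a visual 0–100 response rating taken against controls 13 to 15 days after treatment in the greenhouse. Plants received formulated chemical postemergence at the 1- to 4-leaf stage or, in flooded paddy, at the 2-leaf stage.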

barnyardgrass [4] = experiment: Test A pre-/postemergence herbicide test; type: in vivo, Echinochloa crus-galli
Method in brief: as §2

velvetleaf [5] = experiment: Test A pre-/postemergence herbicide test; type: in vivo, Abutilon theophrasti
Method in brief: as §2

morningglory [6] = experiment: Test A pre-/postemergence herbicide test; type: in vivo, Ipomoea spp.
Method in brief: as §2

[7] = test system: small flower umbrella sedge; experiment: Test B flooded paddy test; type: in vivo, Cyperus difformis; conditions: 1000 g ai/ha, visual rating, scale 0 to 100 (0 no effect, 100 complete control), 13 to 15 days
Method in brief: as §3

ducksalad = experiment: Test B flooded paddy test; type: in vivo, Heteranthera limosa; conditions: 1000 g ai/ha, visual rating, scale 0 to 100 (0 no effect, 100 complete control), 13 to 15 days
Method in brief: as §3

blackgrass = experiment: Test B postemergence herbicide test; type: in vivo, Alopecurus myosuroides; conditions: scale 0 (no effect) to 100 (complete control)
Method in brief: as §3

wheat = experiment: Test B postemergence herbicide test; type: in vivo, Triticum aestivum; set-up: key to Wheat plant response rating: 0 = no effect, 100 = complete control; conditions: scale 0 (no effect) to 100 (complete control)
Method in brief: as §5

giant foxtail [8] = experiment: Test B pre-/postemergence herbicide test; type: in vivo, Setaria faberi
Method in brief: as §1

morningglory [9] = experiment: Test B pre-/postemergence herbicide test; type: in vivo, Ipomoea coccinea
Method in brief: as §4

large crabgrass [10] = experiment: Test B pre-/postemergence herbicide test; type: in vivo, Digitaria sanguinalis
Method in brief: as §1

velvetleaf [11] = experiment: Test B pre-/postemergence herbicide test; type: in vivo, Abutilon theophrasti
Method in brief: as §1

Surinam grass = experiment: Test B pre-/postemergence herbicide test; type: in vivo, Urochloa decumbens
Method in brief: as §1

cocklebur = experiment: Test B pre-/postemergence herbicide test; type: in vivo, Xanthium strumarium
Method in brief: as §4

corn = experiment: Test B pre-/postemergence herbicide test; type: in vivo, Zea mays
Method in brief: as §1

large crabgrass [12] = experiment: Test A pre-/postemergence herbicide test; type: in vivo, Digitaria sanguinalis
Method in brief: as §2

redroot pigweed = experiment: Test A pre-/postemergence herbicide test; type: in vivo, Amaranthus retroflexus
Method in brief: as §2

rice = experiment: Test B flooded paddy test; type: in vivo, Oryza sativa; conditions: 1000 g ai/ha, visual rating, scale 0 to 100 (0 no effect, 100 complete control), 13 to 15 days
Method in brief: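 Read-out: visual comparison with controls, scored 0 to 100, where 100 means complete control and 0 no effect. Formulated chemicals were applied postemergence to plants 2–18 cm tall (1- to 4-leaf), or to flooded-paddy plants at the 2-leaf stage, then held 13 to 15 days under glass.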

lambsquarters = experiment: Test B pre-/postemergence herbicide test; type: in vivo, Chenopodium album
Method in brief: as §1

[13] = 500 g ai/ha, visual rating 0-100, 0 no effect, 100 complete control, preemergence
[14] = Postemergence, 500 g ai/ha, visual rating after 13 to 15 days, scale 0 (no effect) to 100 (complete control)
[15] = postemergence, 125 g ai/ha, visual rating, scale 0 (no effect) to 100 (complete control)
[16] = preemergence, 125 g ai/ha, 0 to 100 scale, 0 is no effect, 100 is complete control
[17] = Postemergence, 500 g ai/ha, 0 to 100 scale, 0 no effect, 100 complete control
[18] = Postemergence, 2000 g ai/ha, 0 to 100 scale, 0 no effect, 100 complete control
[19] = Preemergence, 500 g ai/ha, visual rating, 0 to 100 scale (0 no effect, 100 complete control)
[20] = Preemergence, 2000 g ai/ha, visual rating, 0 to 100 scale (0 no effect, 100 complete control)
[21] = Postemergence, 500 g ai/ha, visual rating after 13 to 15 days
[22] = postemergence, 125 g ai/ha, visual rating

CC(=NO)c1cccc(NC(=O)c2cc(C(C)(C)C)nn2C)c1 [Compound 107]
10: Plant response rating, Pigweed (pigweed; [14]) | Foxtail, Giant plant response rating (giant foxtail [1]; [19]) | Plant response rating, Morningglory (morningglory [9]; [13]) | Plant response rating, Crabgrass, Large (large crabgrass [10]; [13]) | Plant response rating, Surinam Grass (Surinam grass; [13]) | Plant response rating, Surinam Grass (Surinam grass; [14]) | Surinam Grass plant response rating (Surinam grass; [15]) | Lambsquarters plant response rating (lambsquarters; [15])
35: Plant response rating, Foxtail, Giant (giant foxtail [1]; [18]) | Barnyardgrass plant response rating (barnyardgrass [4]; [20]) | Pigweed plant response rating (redroot pigweed; [19])
40: Plant response rating, Morningglory (morningglory [6]; [18]) | Plant response rating, Crabgrass, Large (large crabgrass [12]; [18])
55: Plant response rating, Barnyardgrass (barnyardgrass [4]; [18])
90: Crabgrass, Large plant response rating (large crabgrass [12]; [20])
65: Crabgrass, Large plant response rating (large crabgrass [12]; [19])
80: Foxtail, Giant plant response rating (giant foxtail [1]; [20])
0: Plant response rating, Pigweed (pigweed; [13]) | Pigweed plant response rating (pigweed; [15]) | Plant response rating, Pigweed (pigweed; [16]) | Barnyardgrass plant response rating (barnyardgrass [2]) | Plant response rating, Barnyardgrass (barnyardgrass [3]; [13]) | Plant response rating, Barnyardgrass (barnyardgrass [3]; [14]) | Barnyardgrass plant response rating (barnyardgrass [3]; [15]) | Plant response rating, Barnyardgrass (barnyardgrass [3]; [16]) | Plant response rating, Oat, Wild (wild oat; [21]) | Oat, Wild plant response rating (wild oat; [22]) | Barnyardgrass plant response rating (barnyardgrass [4]; [19]) | Velvetleaf plant response rating (velvetleaf [5]; [17]) | Plant response rating, Velvetleaf (velvetleaf [5]; [18]) | Velvetleaf plant response rating (velvetleaf [5]; [19]) | Velvetleaf plant response rating (velvetleaf [5]; [20]) | Plant response rating, Blackgrass (blackgrass; [21]) | Blackgrass plant response rating (blackgrass; [22]) | Plant response rating, Wheat (wheat; [21]) | Wheat plant response rating (wheat; [22]) | Plant response rating, Foxtail, Giant (giant foxtail [8]; [13]) | Plant response rating, Foxtail, Giant (giant foxtail [8]; [14]) | Foxtail, Giant plant response rating (giant foxtail [8]; [15]) | Plant response rating, Foxtail, Giant (giant foxtail [8]; [16]) | Plant response rating, Morningglory (morningglory [9]; [14]) | Morningglory plant response rating (morningglory [9]; [15]) | Plant response rating, Morningglory (morningglory [9]; [16]) | Plant response rating, Crabgrass, Large (large crabgrass [10]; [14]) | Crabgrass, Large plant response rating (large crabgrass [10]; [15]) | Plant response rating, Crabgrass, Large (large crabgrass [10]; [16]) | Plant response rating, Velvetleaf (velvetleaf [11]; [13]) | Plant response rating, Velvetleaf (velvetleaf [11]; [14]) | Velvetleaf plant response rating (velvetleaf [11]; [15]) | Plant response rating, Velvetleaf (velvetleaf [11]; [16]) | Plant response rating, Surinam Grass (Surinam grass; [16]) | Plant response rating, Cocklebur (cocklebur; [13]) | Plant response rating, Cocklebur (cocklebur; [14]) | Cocklebur plant response rating (cocklebur; [15]) | Plant response rating, Cocklebur (cocklebur; [16]) | Plant response rating, Corn (corn; [13]) | Plant response rating, Corn (corn; [14]) | Corn plant response rating (corn; [15]) | Plant response rating, Corn (corn; [16]) | Rice plant response rating (rice) | Plant response rating, Lambsquarters (lambsquarters; [16])
25: Crabgrass, Large plant response rating (large crabgrass [12]; [17])
30: Morningglory plant response rating (morningglory [6]; [17]) | Plant response rating, Lambsquarters (lambsquarters; [13])
100: Morningglory plant response rating (morningglory [6]; [20]) | Plant response rating, Pigweed (redroot pigweed; [18])
60: Sedge, Umbrella plant response rating [7] | Ducksalad plant response rating (ducksalad)
95: Morningglory plant response rating (morningglory [6]; [19]) | Pigweed plant response rating (redroot pigweed; [17]) | Pigweed plant response rating (redroot pigweed; [20])
20: Foxtail, Giant plant response rating (giant foxtail [1]; [17]) | Barnyardgrass plant response rating (barnyardgrass [4]; [17]) | Plant response rating, Lambsquarters (lambsquarters; [14])
